{"source": "patent US20080234341A1", "about": "“Carisoprodol and Phenytoin Methods” (MUTUAL PHARMACEUTICAL COMPANY, INC., priority 2006, published 2008)", "key": {"[1]": {"assay": "Single-dose two-way crossover study of phenytoin pharmacokinetics, alone or co-administered with carisoprodol", "settings": "human, in vivo; for half-life / Tmax: least sq. mean", "experimental": "The study was designed as a randomized, single-dose two-way crossover to compare the pharmacokinetic parameters of carisoprodol (350 mg SOMA® (carisoprodol) Tablets by MedPointe Pharmaceuticals, MedPointe Healthcare Inc.) and phenyloin (PROMPT® Phenyloin Sodium 100 mg Capsules by IVAX Pharmaceuticals, Inc.). Twelve healthy adults participated in this comparison study and all of the subjects completed the study.\nSubjects received two separate drug administration treatments in assigned periods, one treatment per period, according to the randomization schedule. Treatment (A) was 3 PROMPT® Phenyloin Sodium 100 mg capsules with 240 mL of room temperature water after an overnight fast. Treatment (B) was 3 PROMPT® Phenyloin Sodium 100 mg capsules and 2 tablets of SOMA® (carisoprodol 350 mg tablets) after an overnight fast.\nDosing days were separated by a washout period of at least fourteen days. Blood samples were drawn prior to dosing (pre-dose) and at 0.5, 1, 1.5, 2, 2.5, 3, 3.5, 4, 4.5, 5, 6, 7, 8, 10, 12, 18, 24, and 48 hours post-dose. The samples were then analyzed for total phenyloin. At study hours 2, 4, 6, 12 and 24 an additional blood sample was collected for the determination of “free” phenyloin.\nThe area under the plasma concentration versus time curve [AUCt] may be calculated using the linear trapezoidal rule from the zero time point to the last measured concentration.\nThe area under the plasma concentration versus time curve from zero to infinity [AUC0-INF] may be calculated by adding Ct/Kelm to AUC where Ct is the last measured concentration and Kelm is the elimination rate constant.\nThe maximum observed plasma concentration [Cmax] may be obtained by inspection.\nThe time to maximum plasma concentration [Tmax] may be obtained by inspection. If the same maximum plasma concentration occurs at more than one time point, the first may be chosen as Tmax.\nThe terminal elimination rate constant [Kelm] may be obtained from the slope of the line, fitted by linear least squares regression, through the terminal points of the ln(base e) of the concentration versus time plot for these points.\nThe half-life [T1/2] may be calculated by the equation T1/2=0.693/Kelm."}, "[2]": {"assay": "Drug interaction study: carisoprodol added to a steady-state regimen of phenytoin", "settings": "human, in vivo; for half-life / Tmax: least sq. mean", "experimental": "A single-arm, two-way drug interaction study was conducted in which carisoprodol (350 mg SOMA®) was added to a steady state regimen of phenyloin (PROMPT® Phenyloin Sodium 100 mg Capsules). The effects of coadministration of carisoprodol at steady state conditions on the Cmax and AUC of phenyloin are summarized in Table 5. Twenty-four healthy adults participated in this comparison study and twenty-one of the subjects completed the study.\nOn study Days 1 through 14, a single 300 mg (1×300 mg capsule) dose of phenyloin sodium was administered to all study subjects following an overnight fast of at least 10 hours.\nOn study Days 15 through 28, a single 300 mg (1×300 mg capsule) dose of phenyloin sodium and a single 350 mg (1×350 mg tablet) dose of carisoprodol were co-administered to all study subjects following an overnight fast of at least 10 hours. A single dose of carisoprodol was re-administered to all study subjects 3 more times a day (every 6 hours) for Days 15 through 28.\nPhenyloin: On study Days 14 and 28, 18 blood samples were collected (6 mL each) from each subject by direct venipuncture using pre-labeled Vacutainers® containing K2 EDTA as an anticoagulant. Blood samples were collected within one hour prior to dosing and after dose administration at study hours 0.5, 1, 1.5, 2, 2.5, 3, 3.5, 4, 4.5, 5, 6, 7, 8, 10, 12, 18, and 24."}, "[3]": {"tested_on": "plasma proteins in the bloodstream such as albumin", "settings": "cited from earlier work"}, "[4]": {"settings": "cited from earlier work"}, "[5]": {"settings": "cited from earlier work", "remark": "listed apart in the source"}}}
{"compound": "O=C1NC(=O)C(c2ccccc2)(c2ccccc2)N1", "note": "[Phenytoin, 5,5-diphenylhydantoin]", "values": [{"measurement": "AUC0-INF, free phenytoin, geometric mean", "setting": "[1]", "value": 12927.88, "unit": "ng·h/mL"}, {"measurement": "AUC0-t, free phenytoin, geometric mean", "setting": "[1]", "value": 5150.25, "unit": "ng·h/mL"}, {"measurement": "AUC(0-inf)", "setting": "[1]", "value": 134000, "unit": "ng·h/mL"}, {"measurement": "AUC(0-t)", "setting": "[1]", "value": 97300, "unit": "ng·h/mL"}, {"measurement": "Cmax, total phenytoin, geometric mean", "setting": "[1]", "value": 3222.2, "unit": "ng/mL"}, {"measurement": "Kelm, total phenytoin, least sq. mean", "setting": "[1]", "value": 0.03395}, {"measurement": "kelm, free phenytoin, least sq. mean", "setting": "[1]", "value": 0.0279}, {"measurement": "half-life", "setting": "[1]; T1/2, free phenytoin", "value": 35.8, "unit": "h"}, {"measurement": "half-life", "setting": "[1]; T1/2, total phenytoin", "value": 23.9, "unit": "h"}, {"measurement": "Tmax", "setting": "[1]; free phenytoin", "value": 9.17, "unit": "h"}, {"measurement": "Tmax", "setting": "[1]; total phenytoin", "value": 7.44, "unit": "h"}, {"measurement": "AUC0-INF, free steady-state phenytoin, geometric mean", "setting": "[2]", "value": 32701.49, "unit": "ng·h/mL"}, {"measurement": "AUC0-t, free steady-state phenytoin, geometric mean", "setting": "[2]", "value": 14733.48, "unit": "ng·h/mL"}, {"measurement": "Cmax, total steady-state phenytoin, geometric mean", "setting": "[2]", "value": 13604.17, "unit": "ng/mL"}, {"measurement": "kelm, free steady-state phenytoin, least sq. mean", "setting": "[2]", "value": 0.0312}, {"measurement": "kelm, total steady-state phenytoin, least sq. mean", "setting": "[2]", "value": 0.0233}, {"measurement": "Cmax, free steady-state phenytoin, geometric mean", "setting": "[2]; 350 mg", "value": 929.76, "unit": "ng/mL"}, {"measurement": "half-life", "setting": "[2]; T1/2, free steady-state phenytoin", "value": 35.4, "unit": "h"}, {"measurement": "half-life", "setting": "[2]; T1/2, total steady-state phenytoin", "value": 39.4, "unit": "h"}, {"measurement": "Tmax", "setting": "[2]; free steady-state phenytoin", "value": 5.04, "unit": "h"}, {"measurement": "Tmax", "setting": "[2]; total steady-state phenytoin", "value": 3.55, "unit": "h"}, {"measurement": "bound to plasma proteins", "setting": "[3]", "value": "about 90%"}, {"measurement": "typical clinically effective serum level of unbound or free phenytoin (therapeutic range)", "setting": "[4]; free phenytoin", "value": "1 to 2", "unit": "µg/mL"}, {"measurement": "typical clinically effective serum level of total phenytoin (therapeutic range)", "setting": "[4]; total phenytoin", "value": "10 to 20", "unit": "µg/mL"}]}
{"compound": "CCCC(C)(COC(N)=O)COC(=O)NC(C)C", "note": "(centres unmarked) [Carisoprodol, N-isopropyl-2-methyl-2-propyl-1,3-propanediol dicarbamate]", "values": [{"measurement": "solubility in alcohol, chloroform, and acetone (descriptive)", "setting": "[5]; alcohol, chloroform, acetone", "value": "freely soluble"}, {"measurement": "solubility in water (descriptive)", "setting": "[5]; water", "value": "very sparingly soluble"}]}
